From patent US8658675B2, “Pyridin-4-yl derivatives” (Actelion Pharmaceuticals Ltd., priority 2009, dated 2014)

Assays:
human S1P1 receptor = human S1P1 receptor (Homo sapiens, UniProt P21453); test: GTPγS assay to determine EC50 values; type: biochemical; settings: membranes of CHO cells expressing recombinant human S1P1 receptor; 35S-GTPγS binding
Description: GTPγS binding assays are performed in 96 well microtiter plates (Nunc, 442587) in a final volume of 200 μl, using membrane preparations of CHO cells expressing recombinant human S1P1 receptor. Assay conditions are 20 mM Hepes (Fluka, 54461), 100 mM NaCl (Fluka, 71378), 5 mM MgCl2 (Fluka, 63064), 0.1% BSA (Calbiochem, 126609), 1 μM GDP (Sigma, G-7127), 2.5% DMSO (Fluka, 41644), […] ^35S-GTPγS (Amersham Biosciences, SJ1320). The pH is 7.4. Test compounds are dissolved and diluted in 100% DMSO and pre-incubated at room temperature for 30 min in 150 μl of the above assay buffer, in the absence of ^35S-GTPγS. After addition of 50 μl of ^35S-GTPγS, the assay is incubated for 1 h at rt. The assay is terminated by transfer of the reaction mixture to a Multiscreen plate (Millipore, MAHFC1H60) using a cell harvester from Packard Biosciences, and the plates are washed with ice-cold 10 mM Na2HPO4/NaH2PO4 (70%/30%), dried, sealed at the bottom and, after addition of 25 μl MicroScint20 (Packard Biosciences, order#6013621), sealed on the top. Membrane-bound ^35S-GTPγS is measured with a TopCount from Packard Biosciences.
EC50 is the concentration of agonist inducing 50% of the maximal specific ^35S-GTPγS binding. Specific binding is determined by subtracting non-specific binding from maximal binding. Maximal binding is the amount of cpm bound to the Multiscreen plate in the presence of 10 μM of S1P. Non-specific binding is the amount of binding in the absence of an agonist in the assay.
Agonistic activities (EC50 values) of all exemplified compounds have been measured.

circulating lymphocytes = test: Assessment of in vivo efficacy: circulating lymphocytes after oral administration; set-up: species or system normotensive male Wistar rats; settings: Rattus norvegicus, Lymphocyte; 6 h after oral administration of 10 mg/kg, male Wistar rats, compared to vehicle group; read-out: Lymphocyte counts
Description: The efficacy of the compounds of Formula (I) is assessed by measuring the circulating lymphocytes after oral administration of 3 to 30 mg/kg of a compound of Formula (I) to normotensive male Wistar rats. The animals are housed in climate-controlled conditions with a 12 h-light/dark cycle, and have free access to normal rat chow and drinking water. Blood is collected before and 3, 6 and 24 h after drug administration. Full blood is subjected to hematology using Advia Hematology system (Bayer Diagnostics, Zurich, Switzerland).
All data are presented as mean±SEM. Statistical analyses are performed by analysis of variance (ANOVA) using Statistica (StatSoft) and the Student-Newman-Keuls procedure for multiple comparisons. The null hypothesis is rejected when p<0.05.
Lymphocyte counts 6 h after oral administration have been measured for 23 out of 30 exemplified compounds and are in the range of −42% to −80% with an average of −63%.

rat trachea rings [1] = test: Measurement of isometric force development: rat trachea ring constriction; set-up: species or system Female Wistar rats; settings: for potential to constrict rat trachea rings (comparison in words): compared to closest prior art analogues of WO 2008/029371 or to Example 2; for % trachea constriction at 1 μM: compound at 1 μM, in % of the constriction induced by 50 mM KCl
Description: Animals were obtained from RCC Ltd (Füllinsdorf, Switzerland). Female Wistar rats were euthanized by exposure to CO2. The tracheae were excised and rings from the lower segments were prepared. Rings of trachea were suspended in tissue baths (10 mL) containing Krebs-Henseleit buffer of the following composition (mM): NaCl 115; KCl 4.7; MgSO4 1.2; KH2PO4 1.5; CaCl2 2.5; NaHCO3 25; glucose 10. Bathing solution was maintained at 37° C. and aerated with 95% O2/5% CO2 (pH 7.4). A resting force of 2 g (20 mN) was applied to the ring preparation, and changes in force generation were measured using an isometric force recorder (EMKA Technologies Inc, Paris, France). Viability of rings was assessed by exposure to a depolarizing concentration of KCl (50 mM). Contraction of trachea was expressed as a percentage of the response to KCl.
All compounds were prepared as stock solutions of 0.3 mM in pure DMSO. Compounds were added to the bath (10 mL) in a volume of 33 μL to give a final bath concentration of DMSO of 0.33%.
Contraction of trachea was measured for 15 out of 30 exemplified compounds.

rat trachea rings [2] = test: as above; set-up: species or system Female Wistar rats; settings: compound at 10 μM; in % of the constriction induced by 50 mM KCl

human S1P1 receptor, sequence (P21453 whole entry): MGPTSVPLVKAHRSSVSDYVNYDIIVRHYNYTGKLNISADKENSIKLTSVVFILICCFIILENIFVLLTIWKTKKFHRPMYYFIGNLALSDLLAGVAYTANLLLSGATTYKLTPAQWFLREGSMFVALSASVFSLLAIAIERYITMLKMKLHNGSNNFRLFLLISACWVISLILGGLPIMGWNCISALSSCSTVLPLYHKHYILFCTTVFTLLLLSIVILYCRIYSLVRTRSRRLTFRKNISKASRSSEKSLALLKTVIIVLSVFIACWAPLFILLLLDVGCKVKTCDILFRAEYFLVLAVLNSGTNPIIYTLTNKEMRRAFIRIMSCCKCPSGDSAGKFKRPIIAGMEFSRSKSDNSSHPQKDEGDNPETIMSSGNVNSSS

| SMILES | EC50 (human S1P1 receptor) [nM] | % trachea constriction at 1 μM (rat trachea rings [1]) [%] | % trachea constriction at 10 μM (rat trachea rings [2]) [%] | change in vivo at 10 mg/kg (circulating lymphocytes) [%] | potential to constrict rat trachea rings (comparison in words) (rat trachea rings [1]) |
| --- | --- | --- | --- | --- | --- |
| CCc1cc(-c2noc(-c3cc(OC)nc(C4CCCCC4)c3)n2)cc(C)c1OC[C@@H](O)CO [Example 4, (S)-3-{4-[5-(2-Cyclohexyl-6-methoxy-pyridin-4-yl)-[1,2,4]oxadiazol-3-yl]-2-ethyl-6-methyl-phenoxy}-propane-1,2-diol] | 6.4 | <5 |  | -61 |  |
| CCc1cc(-c2noc(-c3cc(OC)nc(C(CC)CC)c3)n2)cc(C)c1OC[C@@H](O)CNC(=O)CO [Example 6, N-[(2S)-3-(2-Ethyl-4-{5-[2-(1-ethyl-propyl)-6-methoxy-pyridin-4-yl]-[1,2,4]oxadiazol-3-yl}-6-methyl-phenoxy)-2-hydroxy-propyl]-2-hydroxy-acetamide] | 0.6 | <5 | 100 | -59 | significantly reduced potential to constrict rat trachea rings |
| CCc1cc(-c2noc(-c3cc(OC)nc(C4CCCC4)c3)n2)cc(C)c1OC[C@@H](O)CN(C)C(=O)CO [Example 10, N-((2S)-3-{4-[5-(2-Cyclopentyl-6-methoxy-pyridin-4-yl)-[1,2,4]oxadiazol-3-yl]-2-ethyl-6-methyl-phenoxy}-2-hydroxy-propyl)-2-hydroxy-N-methyl-acetamide] | 2.6 | <5 | <5 | -68 |  |
| CCc1cc(-c2noc(-c3cc(OC)nc(C(CC)CC)c3)n2)cc(C)c1NS(C)(=O)=O [Example 18, N-(2-Ethyl-4-{5-[2-(1-ethyl-propyl)-6-methoxy-pyridin-4-yl]-[1,2,4]oxadiazol-3-yl}-6-methyl-phenyl)-methanesulfonamide] | 2.5 | <5 | <5 | -42 |  |
| CCc1cc(-c2noc(-c3cc(OC)nc(C(CC)CC)c3)n2)cc(C)c1OC[C@@H](O)CO [Example 1, (S)-3-(2-Ethyl-4-{5-[2-(1-ethyl-propyl)-6-methoxy-pyridin-4-yl]-[1,2,4]oxadiazol-3-yl}-6-methyl-phenoxy)-propane-1,2-diol] | 2.7 | <5 | 24 | -63 | significantly reduced potential to constrict rat trachea rings |
| CCc1cc(-c2noc(-c3cc(OC)nc(C4CCCC4)c3)n2)cc(C)c1NS(C)(=O)=O [Example 19, N-{4-[5-(2-Cyclopentyl-6-methoxy-pyridin-4-yl)-[1,2,4]oxadiazol-3-yl]-2-ethyl-6-methyl-phenyl}-methanesulfonamide] | 1 | <5 | <5 | -61 |  |
| CCc1cc(-c2noc(-c3cc(CCC(C)C)nc(OC)c3)n2)cc(C)c1OC[C@@H](O)CNC(=O)CO [Example 16, N-[(2S)-3-(2-Ethyl-4-{5-[2-methoxy-6-(3-methyl-butyl)-pyridin-4-yl]-[1,2,4]oxadiazol-3-yl}-6-methyl-phenoxy)-2-hydroxy-propyl]-2-hydroxy-acetamide] | 0.7 | <5 |  | -73 | markedly reduced potential to constrict rat trachea rings |
| COc1cc(-c2nc(-c3cc(C)c(OC[C@@H](O)CO)c(Cl)c3)no2)cc(C2CCCC2)n1 [Example 13, (S)-3-{2-Chloro-4-[5-(2-cyclopentyl-6-methoxy-pyridin-4-yl)-[1,2,4]oxadiazol-3-yl]-6-methyl-phenoxy}-propane-1,2-diol] | 1 | <5 |  | -60 |  |

Continued by falling EC50 (human S1P1 receptor), values first:

| EC50 (human S1P1 receptor) [nM] | % trachea constriction at 1 μM (rat trachea rings [1]) [%] | % trachea constriction at 10 μM (rat trachea rings [2]) [%] | SMILES | change in vivo at 10 mg/kg (circulating lymphocytes) [%] | potential to constrict rat trachea rings (comparison in words) (rat trachea rings [1]) |
| --- | --- | --- | --- | --- | --- |
| 0.9 | <5 | <5 | CCc1cc(-c2noc(-c3cc(OC)nc(C4CCCC4)c3)n2)cc(C)c1OC[C@@H](O)CO [Example 2, (S)-3-{4-[5-(2-Cyclopentyl-6-methoxy-pyridin-4-yl)-[1,2,4]oxadiazol-3-yl]-2-ethyl-6-methyl-phenoxy}-propane-1,2-diol] | -70 | markedly reduced potential to constrict rat trachea rings |
| 0.7 | <5 |  | CCc1cc(-c2nc(-c3cc(OC)nc(C4CCCC4)c3)no2)cc(C)c1OC[C@@H](O)CO [Example 21, (S)-3-{4-[3-(2-Cyclopentyl-6-methoxy-pyridin-4-yl)-[1,2,4]oxadiazol-5-yl]-2-ethyl-6-methyl-phenoxy}-propane-1,2-diol] | -62 | same low potential to constrict rat trachea rings |
| 0.3 | <5 | <5 | COc1cc(-c2nc(-c3cc(C)c(NS(C)(=O)=O)c(Cl)c3)no2)cc(C2CCCC2)n1 [Example 12, N-{2-Chloro-4-[5-(2-cyclopentyl-6-methoxy-pyridin-4-yl)-[1,2,4]oxadiazol-3-yl]-6-methyl-phenyl}-methanesulfonamide] | -64 |  |
